Data taken from patent publication US20240246955A1, “TROPOMYOSIN RECEPTOR KINASE (TRK) DEGRADATION COMPOUNDS AND METHODS OF USE” (CULLGEN (SHANGHAI), INC., priority 2021, published 2024).

Experiments:
Assay type in all cases: cell-based
[1] = target: T1, wildtype TRKA protein (Homo sapiens, UniProt P04629); assay: Wildtype TRKA degradation in HEL cells (Western blot); conditions: 0.1 nM to 1000 nM, 16 hours, Western blot (FIG. 4A)
T1 construct: HEL cells expressing endogenous TRKA; endogenous in cells; host or cells: HEL erythroleukemia cells
Method: HEL cells were treated with heterobifunctional compounds CPD-019 and CPD-002 at 10 nM or 100 nM for 16 hours.
(§1) HEL cells expressing endogenous TRKA, and NIH3T3-TRKB and NIH3T3-TRKC cells prepared as described above were treated with heterobifunctional compound CPD-031 at 0.1 nM, 1 nM, 10 nM, 100 nM and 1000 nM for 16 hours.
(§2) Cultured cells were washed with cold PBS once and lysed in cold RIPA buffer supplemented with protease inhibitors and phosphatase inhibitors (Beyotime Biotechnology). The solutions were then incubated at 4° C. for 30 minutes with gentle agitation to fully lyse cells. Cell lysates were centrifuged at 13,000 rpm for 10 minutes at 4° C. and pellets were discarded. Total protein concentrations in the lysates were determined by BCA assays (Beyotime Biotechnology). Cell lysates were mixed with Laemmli loading buffer to 1× and heated at 99° C. for 5 min. Proteins were resolved on SDS-PAGE and visualized by chemiluminescence. Images were taken by a ChemiDoc MP Imaging system (Bio-Rad). Protein bands were quantitated using the software provided by Bio-Rad.

[2] = test system: KM12 cells; assay: KM12 cell viability assay (CellTiter-Glo); conditions: Homo sapiens, 72 h; KM12 cells, 3 days, CellTiter-Glo
Summary of the method: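 KM12 cells, 5000 per well, treated 3 days with 11-point 3-fold serial dilutions of heterobifunctional compounds. Viability by CellTiter-Glo luminescence, normalized to untreated cells; IC50 from least-squares nonlinear regression.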

[3] = target: T2, human full length TRKB (Homo sapiens, UniProt Q16620); assay: TRKB degradation in NIH3T3-TRKB cells (Western blot); conditions: 0.1 nM to 1000 nM, 16 hours, Western blot (FIG. 4B)
T2 construct: lentivirus directing expression of human full length TRKB or TRKC; expressed in transfected cells; host or cells: NIH3T3 cells, lentiviral transduction, puromycin selection
Method: (§3) NIH3T3 cells were infected with lentivirus directing expression of human full length TRKB or TRKC. Cells were then selected using 1 ug/ml puromycin to establish NIH3T3-TRKB and NIH3T3-TRKC cell lines that stably expressed human TRKB or TRKC, respectively.
as §1, §2

[4] = target: T3, TPM3-TRKA fusion protein (Homo sapiens, UniProt P04629); assay: TPM3-TRKA degradation in KM12 cells (Western blot); conditions: 16 hours, TRK protein, immunoblot
T3 construct: TPM3 (N-terminal part of tropomyosin alpha-3, natural fusion partner); endogenous in cells; host or cells: KM12 colon cancer cells; the other entry of the earlier key: TPM3 (P06753, Tropomyosin alpha-3 chain)
Summary of the method: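 KM12 cells treated with compound at 10 nM or 100 nM for 16 h, lysed in RIPA, and TRK protein measured by immunoblot with TRK-specific antibody and chemiluminescence band quantitation. Percent degradation binned: −, none; +, <50%; ++, ≥50% but <80%; +++, ≥80%.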

[5] = test system: TRKA G595R mutated KM12 cells; assay: Cell viability assay in TRKA G595R mutated KM12 cells (CellTiter-Glo); conditions: Homo sapiens, 72 h, 3 days
Method: KM12, TRKA G595R mutated KM12, HEL, and other cells were cultured at 37° C. with 5% CO2 in DMEM or RPMI 1640 Medium supplemented with 10% fetal bovine serum. Cells were authenticated using the short tandem repeat (STR) assays. Mycoplasma test results were negative.
Cells were seeded at a density of 5000 cells per well in 96-well assay plates and treated with test compounds following a 11-point 3-fold serial dilution. Three days later, cell viability was determined using the CellTiter-Glo assay kit (Promega) according to the manufacturer's instructions. The dose-response curves were determined and IC50 values were calculated using the GraphPad Prism software following a nonlinear regression (least squares fit) method.
The activities of selected compounds on cell viability (IC50 values) and TMP3-TRKA degradation (percentage degradation at 10 nM) in KM12 cells or KM12-G595R mutated KM12 cells (KM12-G595R) are listed in Table 2.

[6] = target: T4, human full length TRKC (Homo sapiens, UniProt Q16288); assay: TRKC degradation in NIH3T3-TRKC cells (Western blot); conditions: 0.1 nM to 1000 nM, 16 hours, Western blot (FIG. 4C)
T4 construct: lentivirus directing expression of human full length TRKB or TRKC; expressed in transfected cells; host or cells: NIH3T3 cells, lentiviral transduction, puromycin selection
Method: as §3, §1, §2

T3 sequence (P04629 with tags, fused parts or gaps): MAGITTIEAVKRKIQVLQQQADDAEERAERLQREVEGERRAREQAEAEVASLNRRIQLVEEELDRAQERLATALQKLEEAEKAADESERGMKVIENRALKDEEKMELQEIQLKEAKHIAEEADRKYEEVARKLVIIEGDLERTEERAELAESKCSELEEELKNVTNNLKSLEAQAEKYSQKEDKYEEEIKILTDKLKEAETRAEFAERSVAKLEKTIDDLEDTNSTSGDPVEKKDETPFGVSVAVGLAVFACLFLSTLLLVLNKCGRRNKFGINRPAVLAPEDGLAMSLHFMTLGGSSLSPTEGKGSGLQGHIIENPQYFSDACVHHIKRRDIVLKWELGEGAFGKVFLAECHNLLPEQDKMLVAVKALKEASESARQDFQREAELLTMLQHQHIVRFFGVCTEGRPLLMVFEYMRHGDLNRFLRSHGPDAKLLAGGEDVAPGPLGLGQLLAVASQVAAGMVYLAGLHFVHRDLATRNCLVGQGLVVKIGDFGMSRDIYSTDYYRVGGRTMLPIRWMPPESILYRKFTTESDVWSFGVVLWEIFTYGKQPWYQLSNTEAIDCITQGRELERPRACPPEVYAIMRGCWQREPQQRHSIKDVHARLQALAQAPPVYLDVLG
T1 sequence (P04629 33-796): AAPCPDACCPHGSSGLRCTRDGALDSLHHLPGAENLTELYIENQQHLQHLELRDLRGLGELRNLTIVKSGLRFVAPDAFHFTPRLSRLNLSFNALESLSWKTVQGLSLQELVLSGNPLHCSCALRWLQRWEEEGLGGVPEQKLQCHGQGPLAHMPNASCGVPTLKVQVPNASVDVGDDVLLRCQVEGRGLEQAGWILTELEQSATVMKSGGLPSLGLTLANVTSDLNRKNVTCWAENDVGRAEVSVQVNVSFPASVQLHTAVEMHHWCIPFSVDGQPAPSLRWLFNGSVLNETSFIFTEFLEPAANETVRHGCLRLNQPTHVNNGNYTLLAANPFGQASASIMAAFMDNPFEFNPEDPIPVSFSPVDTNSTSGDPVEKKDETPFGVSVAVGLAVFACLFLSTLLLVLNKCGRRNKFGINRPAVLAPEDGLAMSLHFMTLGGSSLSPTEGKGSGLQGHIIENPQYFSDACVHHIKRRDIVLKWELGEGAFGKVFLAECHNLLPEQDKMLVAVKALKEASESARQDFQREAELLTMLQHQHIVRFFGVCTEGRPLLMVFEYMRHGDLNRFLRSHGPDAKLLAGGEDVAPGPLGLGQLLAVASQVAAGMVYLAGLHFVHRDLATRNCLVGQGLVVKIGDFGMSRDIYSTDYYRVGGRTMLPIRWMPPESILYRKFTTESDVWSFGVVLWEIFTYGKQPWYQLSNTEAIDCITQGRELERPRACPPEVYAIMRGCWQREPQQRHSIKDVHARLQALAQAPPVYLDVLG
T4 sequence (Q16288 32-839): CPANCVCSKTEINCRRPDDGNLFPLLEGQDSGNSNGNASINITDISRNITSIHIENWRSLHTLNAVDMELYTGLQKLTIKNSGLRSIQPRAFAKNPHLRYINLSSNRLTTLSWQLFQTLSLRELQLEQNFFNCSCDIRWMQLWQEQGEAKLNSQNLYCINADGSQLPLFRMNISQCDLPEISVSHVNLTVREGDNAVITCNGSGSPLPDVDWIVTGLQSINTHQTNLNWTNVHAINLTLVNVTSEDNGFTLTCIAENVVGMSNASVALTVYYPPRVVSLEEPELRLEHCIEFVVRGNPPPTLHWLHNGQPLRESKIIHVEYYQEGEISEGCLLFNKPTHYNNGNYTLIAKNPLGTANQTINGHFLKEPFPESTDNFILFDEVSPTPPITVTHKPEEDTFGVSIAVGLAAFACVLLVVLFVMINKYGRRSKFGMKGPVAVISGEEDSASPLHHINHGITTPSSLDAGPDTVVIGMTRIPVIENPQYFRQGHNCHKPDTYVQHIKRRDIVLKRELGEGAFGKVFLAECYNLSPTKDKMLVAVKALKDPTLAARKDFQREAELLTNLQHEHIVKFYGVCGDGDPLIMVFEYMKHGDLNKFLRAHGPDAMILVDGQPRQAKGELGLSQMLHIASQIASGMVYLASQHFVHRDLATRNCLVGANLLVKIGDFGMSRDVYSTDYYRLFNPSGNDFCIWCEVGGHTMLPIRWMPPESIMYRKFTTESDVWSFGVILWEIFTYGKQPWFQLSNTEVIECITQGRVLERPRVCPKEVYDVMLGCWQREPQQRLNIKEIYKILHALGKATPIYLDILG
T2 sequence (Q16620 32-822): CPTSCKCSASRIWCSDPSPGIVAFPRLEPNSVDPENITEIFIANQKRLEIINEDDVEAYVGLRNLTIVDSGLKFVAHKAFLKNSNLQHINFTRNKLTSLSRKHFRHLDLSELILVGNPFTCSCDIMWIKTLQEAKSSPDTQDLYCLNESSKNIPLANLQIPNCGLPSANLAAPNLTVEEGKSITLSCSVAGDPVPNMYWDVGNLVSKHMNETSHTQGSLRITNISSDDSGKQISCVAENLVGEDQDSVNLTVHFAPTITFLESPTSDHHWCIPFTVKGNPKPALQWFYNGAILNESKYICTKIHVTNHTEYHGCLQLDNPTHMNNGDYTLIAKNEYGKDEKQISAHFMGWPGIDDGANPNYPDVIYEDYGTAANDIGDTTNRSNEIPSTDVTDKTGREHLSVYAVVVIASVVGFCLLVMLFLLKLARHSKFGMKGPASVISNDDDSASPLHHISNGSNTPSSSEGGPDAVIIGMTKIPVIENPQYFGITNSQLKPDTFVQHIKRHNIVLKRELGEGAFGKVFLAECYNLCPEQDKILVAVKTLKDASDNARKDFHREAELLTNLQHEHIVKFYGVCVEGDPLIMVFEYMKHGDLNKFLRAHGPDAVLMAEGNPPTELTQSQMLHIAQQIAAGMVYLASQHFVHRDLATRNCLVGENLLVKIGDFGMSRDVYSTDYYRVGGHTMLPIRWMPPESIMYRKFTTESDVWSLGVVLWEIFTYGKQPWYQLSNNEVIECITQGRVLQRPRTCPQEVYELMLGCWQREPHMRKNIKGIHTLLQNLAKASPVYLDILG

For `COCCN1C[C@@H](NC(=O)Nc2c(C)c(-c3cnc(N4CCN(CCNc5ccc6c(c5)C(=O)N(C5CCC(=O)NC5=O)C6=O)CC4)nc3)nn2-c2ccccc2)[C@H](c2cccc(F)c2)C1` (stereo partly drawn) [CPD-031, 1-(3-(2-(4-(2-((2-(2,6-dioxopiperidin-3-yl)-1,3-dioxoisoindolin-5-yl)amino)ethyl)piperazin-1-yl)pyrimidin-5-yl)-4-methyl-1-phenyl-1H-pyrazol-5-yl)-3-((3S,4R)-4-(3-fluorophenyl)-1-(2-methoxyethyl)pyrrolidin-3-yl)urea], the “wildtype TRKA protein levels in HEL cells” value [1] was “significantly reduced”, the IC50 [2] was 2.04 nM and the TRKB protein levels [3] was “minimal reduction”. The inhibition at 0.01 µM ([4]; 10 nM) was greater than 80%, the inhibition at 0.1 µM ([4]; 100 nM) was greater than 80% and the IC50 [5] was 6.11 nM. The TRKC protein levels [6] was “minimal reduction”.
